Laboratory results from ChEMBL document CHEMBL1125639, “Synthesis and resolution of (+-)-7-chloro-8-hydroxy-1-(3'-iodophenyl)-3-methyl-2,3,4,5-tetrahydro- 1H-3- benzazepine (TISCH): a high affinity and selective iodinated ligand for CNS D1 dopamine receptor” (J Med Chem, 1991).

Organism: Rattus norvegicus
Format: functional, Striatum, Membrane
Description: Inhibition constant of compound on R-(+)-125[I]-8 radioligand binding to rat striatal membranes

- Ki: 634 nM
Compound: COc1cccc(OC)c1OCCNCC1COc2ccccc2O1 (stereo unspecified)
